{
  "source": "the NIST ThermoML archive (doi:10.1016/j.fluid.2017.05.012)",
  "details": "Liquid, Ebulliometric method (Recirculating still)",
  "note": "± gives the expanded uncertainty stated by the source.",
  "data": [
    {"smiles": "CCCO", "note": "[propan-1-ol]", "values": [
      {"measurement": "vapor or sublimation pressure", "setting": "370.2 K", "result": "101 ± 1", "unit": "kPa"}
    ]},
    {"smiles": "CCCOC(C)=O", "note": "[propyl ethanoate]", "values": [
      {"measurement": "vapor or sublimation pressure", "setting": "374.8 K", "result": "101 ± 1", "unit": "kPa"}
    ]},
    {"smiles": "O", "note": "[water]", "values": [
      {"measurement": "vapor or sublimation pressure", "setting": "372.9 K", "result": "101 ± 1", "unit": "kPa"}
    ]}
  ]
}
